Common to all, as to test: NCI anticancer screen, dose series, 48 h
The test system of assay [1] is DU-145 prostate.
Assay [2] concerns HCT-116 colon.
In assay [3] the test system is HL-60(TB) leukemia.
For assay [4], the system named is HOP-62 NSCLC.
The test system of assay [5] is MOLT-4 leukemia.
Assay [6] concerns NCI-H23 lung.
Assay [7] relates to NCI-H522 lung.
The test system of assay [8] is OVCAR-8 ovarian.
The subject of assay [9] is SK-MEL-28 melanoma.
The test system of assay [10] is SW-620 colon.
In assay [11] the test system is UO-31 renal.
Assay [12] has as its system KM20L2 colon.
In assay [13] the test system is LXFL 529 NSCLC.
Assay [14] has as its system M19-MEL melanoma.

Several values for one entry are separate records, joined by “and”; a condition that tells them apart may be missing. Equal values may be shown once.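 All cell lines were grown in 96-well plates and treated with compound for 48 hours. At the GI50, growth is halved. TGI: total growth inhibition.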

As to `CC1(C)N=C(N)N=C(N)N1c1ccc(CCCCc2ccc(Cl)cc2Cl)cc1`, the TGI in assay [1] is 17.3 µM; in assay [2], 15.1 µM; in assay [3], > 100 µM; in [4], 10.6 µM; in [5], > 100 µM; in assay [6] it was 11.9 µM. Further, the TGI in assay [7] came to 14.3 µM; in [8], 16.1 µM; in [9], 19.2 µM; in [10] it was 12.9 µM; in assay [11] it was 43.9 µM.
`O/N=C1\CC2(N3CCOCC3)CCC1(Cc1ccccc1)CC2`: the TGI in [1] was > 100 µM; in assay [2], 90.6 µM; in assay [3], > 100 µM; in [4] it was 47.8 µM; in [5], > 100 µM; in [6], > 100 µM. The TGI in assay [7] was > 100 µM; in assay [8], 48.1 µM; in [9], > 100 µM; in assay [10], > 100 µM; in assay [11], > 100 µM.
In the case of `COc1ccccc1/C=C1/Sc2scc(CC(=O)Nc3ccccc3)[n+]2C1=O`, the TGI in assay [1] is > 100 µM; in assay [2], > 100 µM; in [3], 47.1 µM; in assay [4], > 100 µM; in assay [5], 56.2 µM; in assay [6] it was > 100 µM. The TGI is 73.4 µM in [7]; > 100 µM in assay [8]; > 100 µM in [9]; > 100 µM in assay [10]; 70.7 µM in assay [11].
In the case of `CCOC(=O)c1ccc(Nc2nc3ccc(C(F)(F)F)cc3nc2-c2ccccc2)cc1`, the TGI in [1], in assay [2], in [3], in assay [4], in assay [5] and in [6] was > 100 µM throughout. For the same molecule, the TGI in [7], in assay [8], in assay [9], in [10] and in assay [11] was > 100 µM each time.
Take `CN(C)CCCNC(=O)CNC(=O)c1cc(NC(=O)c2cc(NC(=O)c3cc(NC(=O)CCNC(=O)c4cc(NC(=O)c5cc(NC(=O)c6nccn6C)cn5C)cn4C)cn3C)cn2C)cn1C`: the TGI in [1] is > 100 µM; in [2] it was > 100 µM; in assay [3], 94.1 µM; in [4] it was > 100 µM; in [5], 57 µM; in assay [6] it was > 100 µM. Further, the TGI in assay [7], in assay [8], in [9], in [10] and in assay [11] was > 100 µM throughout.
With `CNC(=O)CNC(=O)CCC(=O)N(C)C`, the TGI in assay [1], in assay [2], in assay [3], in [4], in assay [5] and in [6] was > 100 µM in each case. The TGI in assay [7], in assay [8], in [9], in assay [10] and in [11] was > 100 µM throughout.
Regarding `C/C=C/OC1C(C2COC(C)(C)O2)OC2OC(C)(C)OC21` (configuration not stated), the TGI in [1], in assay [2], in [3], in assay [4], in assay [5] and in [6] was > 100 µM in each case. For the same molecule, the TGI in [7], in assay [8], in assay [9], in assay [10] and in [11] was > 100 µM throughout.
As to `CCCC(=O)N[C@@H](Cc1cc(I)c(O)c(I)c1)C(=O)NCCCNCCCCNCCCNC(=O)[C@@H](N)CCCN=C(N)N`, the TGI in assay [2], in assay [3], in assay [4], in [12], in assay [13] and in [14] was > 100 µM in each case. Moreover, the TGI in assay [5], in assay [6], in assay [7], in assay [8], in [9] and in assay [10] was > 100 µM each time. Moreover, in [11], the TGI was > 100 µM.
Consider `Cn1c2ccccc2n2c3ccccc3c(=S)c(C#N)c12`, for which the TGI in assay [1], in assay [2], in assay [3], in assay [4], in [5] and in assay [6] was > 100 µM throughout. In addition, the TGI in [7], in assay [8], in assay [9], in assay [10] and in [11] was > 100 µM throughout.
Turning to `C=CCOc1ccc(C2c3c([nH][nH]c3=O)CC(C)(O)C2C(=O)OC)cc1OC` (configuration not stated), the TGI in [1], in assay [2], in assay [3], in [4], in assay [5] and in [6] was > 100 µM each time. Moreover, the TGI in assay [7], in assay [8], in assay [9], in [10] and in assay [11] was > 100 µM throughout.
As to `CC1(C)SC2C(NC(=O)Cc3ccccc3)C(=O)N2C1C(=O)O` (configuration not stated), the TGI in [1], in assay [2], in assay [3], in [4], in [5] and in [6] was > 100 µM in each case. The TGI in assay [7], in assay [8], in assay [9], in assay [10] and in assay [11] was > 100 µM each time.
Take `CSc1nc(-c2cc3c(c(SC)n2)CCC3)cc2c1CCC2`: the TGI in [1], in assay [2], in assay [3], in assay [4], in assay [5] and in assay [6] was > 100 µM each time. In addition, the TGI in assay [7], in assay [8], in assay [9], in assay [10] and in assay [11] was > 100 µM in each case.
Consider `c1ccc2c(Cc3c[nH]c4ccccc34)c[nH]c2c1`, for which the TGI amounted to 34.6 µM in assay [1]; 31.2 µM in assay [2]; 33.4 µM in assay [3]; 33.8 µM in [4]; 61.1 µM in assay [5]; 38.3 µM in [6]. The TGI was 47.9 µM in assay [7]; 42.8 µM in [8]; > 100 µM in assay [9]; 61.6 µM in [10]; 27.7 µM in assay [11].
Take `CC1(C)OC2CN(C(=O)OCc3ccccc3)C(CO)C2O1` (configuration not stated): the TGI in assay [1], in assay [2], in assay [3], in assay [4], in assay [5] and in assay [6] was > 100 µM in each case. Further, the TGI in [7], in assay [8], in [9], in assay [10] and in assay [11] was > 100 µM in each case.
As to `N#C[C@](CO)(NC(=O)OCc1ccccc1)C(F)F`, the TGI in assay [1], in [2], in assay [3], in [4], in assay [5] and in [6] was > 100 µM each time. Moreover, the TGI in assay [7], in assay [8], in [9], in assay [10] and in [11] was > 100 µM throughout.
Consider `CCOC(=O)NC(N(C)C(C(C)C)P(=O)(OCC)OCC)(C(F)(F)F)C(F)(F)F` (configuration not stated), for which the TGI in assay [1], in assay [2], in [3], in assay [4], in assay [5] and in [6] was > 100 µM in each case. In addition, the TGI in assay [7], in assay [8], in assay [9], in assay [10] and in [11] was > 100 µM in each case.
Regarding `O=C1CNc2cc(N3CCN(c4cccc(C(F)(F)F)c4)CC3)ccc2N1`, the TGI in assay [1] is > 100 µM; in [2] it was > 100 µM; in assay [3], > 83.5 µM; in assay [4], > 100 µM; in assay [5], > 84.3 µM; in [6] it was > 100 µM. Also, the TGI was 46 µM in assay [7]; > 100 µM in assay [8]; > 100 µM in assay [9]; > 100 µM in [10]; > 100 µM in assay [11].
As for `Cc1ccc(N2C(=O)CC(=O)N(NC(=O)C(C)Oc3ccccc3C)C2=S)cc1` (configuration not stated), the TGI in assay [1], in [2], in [3], in assay [4], in assay [5] and in [6] was > 100 µM each time. Besides, the TGI in assay [7], in assay [8], in assay [9], in assay [10] and in [11] was > 100 µM throughout.
Consider `CC(C)(N=NC(C)(C)C1=NCCN1)C1=NCCN1`, for which the TGI in assay [1], in [2], in assay [3], in assay [4], in [5] and in [6] was > 100 µM throughout. In addition, the TGI in assay [7] was > 100 µM and 60 µM; in assay [8], > 100 µM; in [9], > 100 µM; in [10], > 100 µM; in [11], > 100 µM. In addition, the GI50 is > 100 µM in [3]; 9.38 µM and 21.4 µM in assay [7].
As for `COc1ccc(C2c3cc4c(cc3OC(N3CCOCC3)C2C)OCO4)c(OC)c1` (configuration not stated), the TGI in assay [1] was 54.7 µM; in [2] it was 15.8 µM; in assay [3] it was > 31.4 µM; in [4], 31.5 µM; in assay [5], 31.9 µM; in assay [6] it was > 67.9 µM. Moreover, the TGI in [7] was 8.95 µM; in assay [8], > 74.7 µM; in assay [9], 29.8 µM; in assay [10], 52.5 µM; in [11] it was 58.7 µM.
Turning to `Cc1ccnc2c1c(=O)c1ccccc1n2C`, the TGI is > 100 µM in assay [1]; > 100 µM in assay [2]; > 100 µM in [3]; > 100 µM in assay [4]; 73.8 µM in assay [5]; > 100 µM in [6]. Also, the TGI in assay [7] was 65.7 µM; in assay [8] it was > 100 µM; in assay [9], > 100 µM; in assay [10], > 100 µM; in assay [11], 36.5 µM.
With `CSCCCNC(=O)c1csc([C@@H](CSC)NC(=O)CCNC(=O)[C@@H](NC(=O)OCC(Br)(Br)Br)C(C)O)n1` (some centres not stated), the TGI in assay [1], in assay [2], in assay [3], in [4], in assay [5] and in assay [6] was > 100 µM in each case. In addition, the TGI in assay [7], in [8], in [9], in [10] and in [11] was > 100 µM each time.
As for `COc1cccc2c1C(=O)c1ccc3cc(CO)cc(O)c3c1C2=O`, the TGI in assay [1] amounted to 3.31 µM; in assay [2] it was 0.787 µM; in assay [3], 0.461 µM; in assay [4], 6.33 µM; in assay [5] it was 4.22 µM; in [6] it was 1.18 µM. Besides, the TGI in assay [7] is 5.89 µM; in assay [8], 2.22 µM; in assay [9] it was 5.61 µM; in [10] it was 1.2 µM; in [11] it was 7.32 µM.

The record behind these values is PubChem BioAssay (NCI).
